Assay results as given in ChEMBL document CHEMBL1134618, “Synthesis and biological evaluation of sialylmimetics as rotavirus inhibitors” (J Med Chem, 2001).

Columns and labels:
Rotavirus [1] = assay: Inhibitory activity against bovine NCDV Rotavirus strain; type: functional, organism-based
Rotavirus [2] = assay: Inhibitory activity against human Wa Rotavirus strain; type: functional, organism-based

| IC50 (Rotavirus [1]) [mM] | IC50 (Rotavirus [2]) [mM] | Compound |
| --- | --- | --- |
| 6.25 | 6.25 | CCC(SC[C@@H]1O[C@@H](O[C@H]2[C@H](O)[C@H](O)[C@H](OC)O[C@H]2CO)[C@@H](O)[C@@H](O)[C@H]1O)C(=O)O (stereo partly specified) |
|  | > 25 | COC1OC(CSC2(C(=O)O)CC(O)C(NC(C)=O)C([C@H](O)[C@H](O)CO)O2)C(O)C(O)C1O (stereo partly specified) |
| > 25 | > 25 | COC1OC(CSC(C)C(=O)O)C(O)C(O)C1O (stereo unspecified) |
| > 25 | > 25 | CO[C@@H]1O[C@@H](CSC(CCO)C(=O)O)[C@@H](O)[C@H](O)[C@@H]1O (stereo partly specified) |
| 12.5 | 25 | CO[C@@H]1O[C@@H](CO)[C@@H](O[C@@H]2O[C@@H](CSC(C(=O)O)c3ccccc3)[C@H](O)[C@H](O)[C@@H]2O)[C@H](O)[C@@H]1O (stereo partly specified) |
| 12.5 | 6.25 | CO[C@@H]1O[C@@H](CO)[C@@H](O[C@@H]2O[C@@H](CSC(C)C(=O)O)[C@H](O)[C@H](O)[C@@H]2O)[C@H](O)[C@@H]1O (stereo partly specified) |
| > 25 | > 25 | CO[C@@H]1O[C@@H](CSC(C(=O)O)c2ccccc2)[C@H](O)[C@H](O)[C@@H]1O (stereo partly specified) |
| 25 | > 25 | CCC(SC[C@@H]1O[C@@H](OC)[C@@H](O)[C@@H](O)[C@H]1O)C(=O)O (stereo partly specified) |
| > 25 | > 25 | CO[C@@H]1O[C@@H](CSC(CCO)C(=O)O)[C@H](O)[C@H](O)[C@@H]1O (stereo partly specified) |
| > 25 | > 25 | CCC(SC[C@@H]1O[C@@H](OC)[C@@H](O)[C@@H](O)[C@@H]1O)C(=O)O (stereo partly specified) |
| > 25 | > 25 | CO[C@@H]1O[C@@H](CSC(C(=O)O)c2ccccc2)[C@@H](O)[C@H](O)[C@@H]1O (stereo partly specified) |
